Source: patent US7005274B1, “Methods and compositions for diagnosing and treating arthritic disorders and regulating bone mass” (MIGENIX Corp., priority 1999, dated 2006)
Values belong to the compound of their own block, whether it stands above or below them.

Assays:
TC28 cells [1] = assay: Cell viability by LDH release in stressor-exposed chondrocytes; format: cell-based; settings: for cell viability (LDH release) under SIN-1 / cell viability under NOC-12 / cell viability of cells exposed to SIN-1 or NOC-12: compound 1 μM; for cell viability (LDH release) under SIN-1: 100 μM SIN-1; for cell viability under NOC-12: NOC-12 (250 μM)
Protocol: (§1) This example describes screening assays using defined chondrocyte functions, for identifying agents that protect chondrocytes from mitochondrial stressors, such as energy depletion or reactive free radicals. Chondrocytic TC28 cells were maintained at 37° C., 5% CO2 in monolayer culture in DMEM/Ham's F12 medium (1:1) supplemented with 10% FCS, 1% L-glutamine, 100 U/ml penicillin and […] streptomycin (Omega Scientific, Tarzana, Calif.). To more closely approximate the in vivo physiologic nonadherent state of chondrocytes for monitoring GAG release (FIG. 10), an in vitro culture system was used wherein TC28 cells were transferred to 6-well plates that had been previously coated for 18 hours at 22° C. with the cell adhesion inhibitor poly-2-hydroxymethacrylate (polyHEMA), provided as a 10% (w/v) solution in 95% ethanol, then washed twice with PBS. Complete medium (DMEM/F12 supplemented as described above) was then added to wells, and cells were maintained under these conditions for up to 72 hours (Folkman et al., 1978 Nature 273:345; Reginato et al., 1994 Arthritis Rheum. 37:1338). Maintenance of chondrocyte phenotype was confirmed by RT-PCR determination of gene transcripts encoding the chondrocyte extracellular matrix components type II collagen and aggrecan (Reginato et al., 1994).
Cells were exposed to one of several agonists added to cultures as stressors for 72 hours, in the absence or presence of candidate chondrocyte protective agents (listed in Table 2). According to non-limiting theory, such stressors may act as one or more of a mitochondrial inhibitor, an inducer of altered mitochondrial function, an apoptogen, an energy-depleting agent, or the like. Stressors used in this example included the […] NOC-12 (N-ethyl-2-(1-ethyl-2-hydroxy-2-nitrosohydrazino)ethanamine; Calbiochem, La Jolla, Calif.); the peroxynitrite donor SIN-1 (3-morpholinosydnonimine, HCl; Calbiochem); and the inflammatory cytokine human recombinant interleukin-1 beta (IL-1β, Calbiochem). Cytotoxicity was determined using the lactate dehydrogenase release assay (Promega, Madison, Wis.) as described above and according to the manufacturer's instructions, and chondrocyte intracellular ATP was determined using the luciferase assay as described above in Example 1.

TC28 cells [2] = assay: GAG release, dimethylene blue dye binding; format: cell-based; settings: for GAG release caused by stressor: TC28 nodules, SIN-1 100 μM, NOC-12 25 μM, IL-1β
Protocol: as §1
Glycosaminoglycan (GAG) release is widely believed to be a cardinal event in the pathogenesis of osteoarthritis, and is stimulated by IL-1β (see, e.g., Sztrolovics et al., 1999 Biochem. J. 339:571 and references cited therein). Therefore, GAG release was determined in chondrocytes maintained on polyHEMA-coated plates as follows: Chondrocyte cartilage “nodules” from the polyHEMA cultures were digested for one hour with papain, 300 μg/ml in 20 mM sodium phosphate-pH 6.8, 1 mM EDTA, 2 mM dithiothreitol. Released GAG was assayed colorimetrically by dimethylene blue (DMB) dye binding according to established procedures (Farndale et al., 1986 Biochim. Biophys. Acta 883:173; Sztrolovics et al., 1999 Biochem. J. 339:571). Briefly, aliquots of the papain digest were added to a dye solution containing 46 μM DMB, 40 mM glycine-pH 3.0, 40 mM NaCl and read immediately in a spectrophotometer at 525 nm. Quantification of GAG in the samples was achieved from calculations using a standard curve generated with samples of 1–50 μg/ml chondroitin sulfate. Mitochondrial protecting agents based on derivatized creatine, ethoxyquin and guanidine compounds were synthesized essentially as disclosed in WO99/37294 (PCT/US99/01718) and WO99/55321 (PCT/US99/09990), which are hereby incorporated by reference in their entireties; these agents were tested as representative candidate chondrocyte protective agents.

TC28 cells [3] = assay: Intracellular ATP, luciferase assay; format: cell-based; settings: for intracellular ATP levels relative to control culture not exposed to NOC-12: NOC-12 alone or in the presence of 1 μM compound
Protocol: (§2) Levels of total cellular ATP were measured by a modification of luciferase-based assays known in the art (Lin et al., Anal. Biochem. 24:531–540, 1968); related assays and modifications may alternatively be used (see, e.g., Turman et al., In Vitro Cell. Dev. Biol. Anim. 32:1–4, 1996, for an assay format that uses a fluorescent plate reader). In brief, 2×10^6 cells were washed and pelleted in 10 ml phosphate-buffered saline (PBS). The cell pellets were snap-frozen in a dry ice/ethanol bath, after which […] of 0.2 M HCl was added, followed by 0.3 ml of 2 mM glycine (pH 9.0). Samples were heated at 100° C. for five minutes, then placed on ice. A standard curve was developed using 0 to 500 pmol of purified ATP (disodium salt). One hundred (100) μl of the cell extract, or purified ATP standard, was added to an equal volume of the ATP assay mixture (containing MgSO4, DTT, EDTA, luciferase and luciferin, all from the Sigma Bioluminescence Assay Kit and all diluted 1:25). Following a 5 second incubation and 15 second integration, samples were read on a TD-20/20 Luminometer (Turner Designs, Sunnyvale, Calif.).

[4] = system: articular chondrocytes and TC28 cells; assay: Oxygen consumption with a Clark electrode (respiratory rate); format: cell-based, human; settings: SIN-1 500 μM; NOC-12 250 μM; antimycin A and oligomycin concentration not stated
[5] = system: articular chondrocytes and TC28 cells; assay: Intracellular ATP, statements covering both cell preparations; format: cell-based, human; settings: for intracellular ATP levels (qualitative): SIN-1 500 μM, NOC-12 250 μM, antimycin A and oligomycin concentration not stated
Protocol: as §2
In FIG. 1A, articular chondrocytes or TC28 cells (5×10^5) in 5 ml were studied in triplicate in the presence of antimycin (or oligomycin, see next Example) at the indicated concentrations, administered every 24 hours for a total of 72 hours, and total intracellular ATP concentrations were determined as described above. Viability determinations are shown in FIG. 1B, where 2×10^4 chondrocytes or TC28 cells in 0.2 ml were cultured in triplicate in the presence of antimycin (or oligomycin) at the indicated concentrations, administered every 24 hours for a total of 72 hours, and cell viability was determined by trypan blue dye exclusion (>200 cells counted for each replicate).

Articular Chondrocytes = assay: Intracellular ATP, luciferase assay; format: cell-based, human; settings: 10 ng/ml TGFβ, 0.025 mM antimycin A, 0.02 μg/ml oligomycin; mean ± SD
Protocol: Human articular cartilage chondrocytes were obtained by collagenase digestion of articular cartilage samples, and subsequent monolayer culture, essentially as described by Terkeltaub et al. (Arthritis Rheum. 41:2152–2164, 1998). The starting material for these primary cultures was human articular cartilage excised during surgical joint replacement, or obtained at autopsy from normal or osteoarthritic joints. The articular chondrocytes were grown in Dulbecco's modified Eagle's Medium with high glucose (DMEM high glucose, Life Technologies, Inc. Grand Island, N.Y.) with 10% fetal calf serum (FCS), 1% glutamine, 100 U/ml penicillin and 50 μg/ml streptomycin (all reagents from Sigma, St. Louis, Mo., unless otherwise noted). Typically, only first passage cells were used in the studies described herein.
as §2, with “Calif.). […]” for “Calif.).”

Compound: Cc1cc(O)ccc1NC(=N)N [A]
cell viability (LDH release) under SIN-1 (TC28 cells [1]): protective effect on cell viability
cell viability under NOC-12 (TC28 cells [1]): moderating effect of the test compounds on NO cytotoxicity

Compound: N=C1NCCN1CC(=O)O [B]
cell viability (LDH release) under SIN-1 (TC28 cells [1]): protective effect on cell viability
cell viability under NOC-12 (TC28 cells [1]): moderating effect of the test compounds on NO cytotoxicity

Compound: CN(CC(=O)O)C(=N)N [C]
GAG release induced by SIN-1 or NOC-12 (TC28 cells [2]; SIN-1 (100 μM) or NOC-12 (25 μM), 1 μM compound, not shown): the severity of this release was moderated
IL-1β-stimulated GAG release (TC28 cells [2]; TC28 nodules on polyHEMA-coated plates): somewhat attenuated the degree of GAG release
cell viability (LDH release) under SIN-1 (TC28 cells [1]): protective effect on cell viability
cell viability under NOC-12 (TC28 cells [1]): moderating effect of the test compounds on NO cytotoxicity

Compound: N=C(N)Nc1ccc(N2CCOCC2)cc1 [E]
cell viability under NOC-12 (TC28 cells [1]): significantly higher viability
intracellular ATP levels relative to control culture not exposed to NOC-12 (TC28 cells [3]): significant depression of intracellular ATP

Compound: CC(=N)NNCC1(C)CCc2c(C)c(O)c(C)c(C)c2O1 (centres unmarked) [J]
cell viability of cells exposed to SIN-1 or NOC-12 (TC28 cells [1]): demonstrated chondrocyte protective activity

Compound: CN(C)c1cc(C(C)(C)c2ccc(O)c(N(C)C)c2)ccc1O [K]
cell viability of cells exposed to SIN-1 or NOC-12 (TC28 cells [1]): demonstrated chondrocyte protective activity

Compound: CC(C)(c1ccc(O)cc1)c1ccc(O)c(N)c1 [L]
cell viability of cells exposed to SIN-1 or NOC-12 (TC28 cells [1]): demonstrated chondrocyte protective activity

Compound: CCNCCN(CC)N(O)N=O [NOC-12, N-ethyl-2-(1-ethyl-2-hydroxy-2-nitrosohydrazino)ethanamine]
respiratory rates [4]: markedly inhibited respiratory rates
GAG release caused by stressor (TC28 cells [2]): also released GAG
intracellular ATP levels relative to control culture not exposed to NOC-12 (TC28 cells [3]): significant depression of intracellular ATP
intracellular ATP levels (qualitative) [5]: depressed intracellular ATP levels

Compound: Nc1c[n+](N2CCOCC2)no1.[Cl-] [SIN-1, 3-morpholinosydnonimine, HCl]
respiratory rates [4]: markedly inhibited respiratory rates
GAG release caused by stressor (TC28 cells [2]): also released GAG
intracellular ATP levels (qualitative) [5]: depressed intracellular ATP levels

Compound: IL-1β: inflammatory cytokine human recombinant interleukin-1 beta
GAG release caused by stressor (TC28 cells [2]): IL-1β-stimulated GAG release
effect of stressor on viability (TC28 cells [1]; TC28 cells): did not cause a decrease
effect of stressor on intracellular ATP levels (TC28 cells [3]; TC28 cells): did not cause a decrease in intracellular ATP levels

ATP (pmoles/μg DNA): Articular Chondrocytes (Articular Chondrocytes): 1,158 ± 6.9 pmoles/μg DNA
Compound: TGFβ
ATP (pmoles/μg DNA):TC28 cells (TC28 cells [3]; 10 ng/ml TGFβ, 0.025 mM antimycin A, 0.02 μg/ml oligomycin, mean ± SD): 801.6 ± 4.9 pmoles/μg DNA
increase of intracellular ATP ([5]; chondrocytes, assessed 72 hours after treatment): about 3 fold
